# Measured values: US20230172204A1 (BASF SE, priority 2020, published 2023)
# Where two headings read alike, the source gives them in different places.
# Legend:
# Pyricularia oryzae = experiment: microbe, parasite or virus in culture; type: cell-based; conditions: Pyricularia oryzae, 168 h, read-out: Fungal growth (%) PYRIOR
# Septoria tritici = experiment: microbe, parasite or virus in culture; type: cell-based; conditions: Zymoseptoria tritici, 168 h, read-out: Fungal growth (%) SEPTTR
# [1] = system: Colletotrichum orbiculare; experiment: Micro titer plate test against Colletotrichum orbiculare causing anthracnose (COLLLA); type: cell-based; conditions: Colletotrichum orbiculare, 168 h, read-out: Fungal growth (%) COLLLA
# Alternaria solani (wt) = experiment: microbe, parasite or virus in culture; type: cell-based; conditions: Alternaria solani, 168 h, read-out: Fungal growth (%) ALTESO wt
# [2] = system: Alternaria solani (F129L); experiment: Micro titer plate test against Alternaria solani causing early blight (ALTESO F129L); type: cell-based; conditions: Alternaria solani, 168 h
# Leptosphaeria nodorum = experiment: Micro titer plate test against Leptosphaeria nodorum causing wheat leaf spots (LEPTNO); type: cell-based; conditions: for activity at 0.063 ppm: Parastagonospora nodorum, 168 h, read-out: Fungal growth (%) LEPTNO
# Cercospora sojina = experiment: microbe, parasite or virus in culture; type: cell-based; conditions: for activity at 4 ppm: Cercospora sojina, 168 h, read-out: Fungal growth (%) CERCSO
# Microdochium nivale = experiment: Micro titer plate test against Microdochium nivale causing snow mould (MONGNI); type: cell-based; conditions: for activity at 0.016 ppm: Microdochium nivale, 168 h, read-out: Fungal growth (%) MONGNI
# Pyrenophora teres (wt) = experiment: Micro titer plate test against Pyrenophora teres causing net blotch on barley (PYRNTE wt); type: cell-based; conditions: 168 h, read-out: Fungal growth (%) PYRNTE wt
# [3] = system: Phakopsora pachyrhizi (F129L); experiment: Protective control of soybean rust on soybeans (PHAKPA P2); type: in vivo; conditions: for % PHAKPA (F129L) Disease level P2 at 4 ppm: protective P2, 4 ppm; for % PHAKPA (F129L) Disease level P2 at 4 ppm / % PHAKPA (F129L) Disease level P2 at 16 ppm: soybean rust F129L; for % PHAKPA (F129L) Disease level P2 at 16 ppm: protective P2, 16 ppm
# [4] = system: Phakopsora pachyrhizi (F129L); experiment: Protective control of soybean rust on soybeans (PHAKPA P6); type: in vivo; conditions: for % PHAKPA (F129L) Disease level P6 at 4 ppm: protective P6, 4 ppm; for % PHAKPA (F129L) Disease level P6 at 4 ppm / % PHAKPA (F129L) Disease level P6 at 16 ppm: soybean rust F129L; for % PHAKPA (F129L) Disease level P6 at 16 ppm: protective P6, 16 ppm
# [5] = 0.016 ppm, read-out: Fungal growth (%) ALTESO F129L
# [6] = P2 protective, % diseased leaf area
# [7] = P6 protective, % diseased leaf area
compound,measurement,setting,value
CO/N=C(/C(=O)OC)c1cccc(C)c1CO/N=C(/c1cccc(Cl)c1)C1CC1 [drawing 961],activity at 0.016 ppm,Pyricularia oryzae,83%
same,activity at 0.25 ppm,Septoria tritici,39%
same,activity at 0.063 ppm,[1],89%
same,activity at 0.016 ppm,Alternaria solani (wt),81%
same,activity at 0.016 ppm,[2]; [5],89%
CNC(=O)/C(=N/OC)c1cccc(C)c1CO/N=C(\SC)c1cccc(C(F)(F)F)c1 [drawing 944],activity at 0.016 ppm,Pyricularia oryzae,49%
same,activity at 0.063 ppm,Leptosphaeria nodorum,93%
same,activity at 0.016 ppm,[2]; [5],85%
same,activity at 4 ppm,Cercospora sojina; 4 ppm,66%
same,activity at 0.016 ppm,Microdochium nivale,84%
CO/N=C(/C(=O)OC)c1cccc(C)c1CO/N=C(/c1cccc(C)c1)C1CC1 [drawing 955],activity at 0.063 ppm,Leptosphaeria nodorum,100%
same,activity at 0.016 ppm,Alternaria solani (wt),100%
same,activity at 0.016 ppm,[2]; [5],87%
same,activity at 0.25 ppm,Pyrenophora teres (wt),78%
same,activity at 4 ppm,Cercospora sojina; 4 ppm,87%
CNC(=O)/C(=N/OC)c1cccc(C)c1CO/N=C(\SC)c1cccc(Cl)c1 [drawing 966],activity at 0.016 ppm,Pyricularia oryzae,100%
same,activity at 0.25 ppm,Septoria tritici,59%
same,activity at 0.063 ppm,[1],82%
same,activity at 0.25 ppm,Alternaria solani (wt); 0.25 ppm,43%
same,activity at 0.016 ppm,[2]; [5],90%
CO/N=C(/C(=O)OC)c1cccc(C)c1CO/N=C(\SC)c1cccc(Cl)c1 [drawing 960],activity at 0.016 ppm,Pyricularia oryzae,88%
same,activity at 0.25 ppm,Septoria tritici,39%
same,activity at 0.063 ppm,[1],82%
same,activity at 0.016 ppm,Alternaria solani (wt),94%
same,activity at 0.016 ppm,[2]; [5],100%
CNC(=O)/C(=N/OC)c1cccc(C)c1CO/N=C(\OC)c1cccc(C)c1 [drawing 957],activity at 0.016 ppm,Pyricularia oryzae,80%
same,activity at 0.25 ppm,Septoria tritici,100%
same,activity at 0.063 ppm,[1],81%
same,activity at 0.016 ppm,Alternaria solani (wt),93%
same,activity at 0.016 ppm,[2]; [5],95%
CO/N=C(/C(=O)OC)c1cccc(C)c1CO/N=C(/c1cccc(Cl)c1)C1CC1 [drawing 964],activity at 0.25 ppm,Pyrenophora teres (wt),69%
same,activity at 4 ppm,Cercospora sojina; 4 ppm,61%
CO/N=C(/C(=O)OC)c1cccc(C)c1CO/N=C(\C)c1cccc(C(F)(F)F)c1 [Ex. 9],PHAKPA (F129L) Disease level (%) P2 at 16 ppm,[3]; [6],23%
same,% PHAKPA (F129L) Disease level P2 at 4 ppm,[3],35%
same,% PHAKPA (F129L) Disease level P2 at 16 ppm,[3],23%
same,PHAKPA (F129L) Disease level (%) P6 at 4 ppm,"[4]; P6 protective, 4 ppm, % diseased leaf area",41%
same,% PHAKPA (F129L) Disease level P6 at 4 ppm,[4],41%
same,% PHAKPA (F129L) Disease level P6 at 16 ppm,[4],4%
same,activity at 0.016 ppm,Pyricularia oryzae,38%
same,activity at 0.063 ppm,Leptosphaeria nodorum,67%
same,activity at 0.016 ppm,Alternaria solani (wt),73%
same,activity at 0.025 ppm,Pyrenophora teres (wt),44%
same,activity at 4 ppm,Cercospora sojina; 4 ppm,11%
CO/N=C(/C(=O)OC)c1cccc(C)c1CO/N=C(\SC)c1cccc(C)c1 [drawing 953],activity at 0.063 ppm,Leptosphaeria nodorum,85%
same,activity at 0.016 ppm,Alternaria solani (wt),67%
same,activity at 0.016 ppm,[2]; [5],66%
same,activity at 0.25 ppm,Pyrenophora teres (wt),59%
same,activity at 4 ppm,Cercospora sojina; 4 ppm,71%
CNC(=O)/C(=N/OC)c1cccc(C)c1CO/N=C(\OC)c1cccc(C(F)(F)F)c1 [drawing 946],activity at 0.016 ppm,Pyricularia oryzae,39%
same,activity at 0.25 ppm,Septoria tritici,77%
same,activity at 0.063 ppm,Leptosphaeria nodorum,95%
same,activity at 0.016 ppm,Alternaria solani (wt),100%
same,activity at 0.016 ppm,[2]; [5],87%
CO/N=C(/C(=O)OC)c1cccc(C)c1CO/N=C(\OC)c1cccc(C(F)(F)F)c1 [drawing 942],activity at 0.016 ppm,Pyricularia oryzae,58%
same,activity at 0.063 ppm,Leptosphaeria nodorum,100%
same,activity at 4 ppm,Cercospora sojina; 4 ppm,56%
CO/N=C(/C(=O)OC)c1cccc(C)c1CO/N=C(\C)c1cccc(OC(F)(F)F)c1 [drawing 938],activity at 0.063 ppm,[1],77%
same,activity at 4 ppm,"[2]; 4 ppm, read-out: Fungal growth (%) ALTESO F129L",87%
CNC(=O)/C(=N/OC)c1cccc(C)c1CO/N=C(\OC)c1cccc(C(F)(F)F)c1 [drawing 948],activity at 4 ppm,Cercospora sojina; 4 ppm,60%
same,activity at 0.016 ppm,Microdochium nivale,80%
Cc1cccc(-n2nnn(C)c2=O)c1COc1ccn(-c2ccc(Cl)cc2)n1 [drawing 928],activity at 0.016 ppm,Pyricularia oryzae,87%
same,activity at 0.016 ppm,Alternaria solani (wt),98%
same,activity at 0.016 ppm,[2]; [5],100%
same,activity at 0.016 ppm,Microdochium nivale,97%
CO/N=C(/C(=O)OC)c1cccc(C)c1CO/N=C(\SC)c1cccc(Cl)c1 [drawing 963],activity at 0.063 ppm,Leptosphaeria nodorum,88%
same,activity at 0.25 ppm,Pyrenophora teres (wt),57%
same,activity at 4 ppm,Cercospora sojina; 4 ppm,62%
same,activity at 0.016 ppm,Microdochium nivale,95%
CO/N=C(/C(=O)OC)c1cccc(C)c1CO/N=C(\C)c1cccc(OC(F)(F)F)c1 [drawing 934],activity at 0.016 ppm,Pyricularia oryzae,100%
same,activity at 0.016 ppm,Alternaria solani (wt),94%
same,activity at 0.025 ppm,Pyrenophora teres (wt),84%
same,activity at 4 ppm,Cercospora sojina; 4 ppm,33%
CNC(=O)/C(=N/OC)c1cccc(C)c1CO/N=C(\C)c1cccc(C(F)(F)F)c1 [Ex. 8],PHAKPA (F129L) Disease level (%) P2 at 1 ppm,"[3]; P2 protective, 1 ppm, % diseased leaf area",6%
same,PHAKPA (F129L) Disease level (%) P2 at 4 ppm,"[3]; P2 protective, 4 ppm, % diseased leaf area",1%
same,% PHAKPA (F129L) Disease level P2 at 4 ppm,[3],4%
same,% PHAKPA (F129L) Disease level P2 at 16 ppm,[3],0%
same,% PHAKPA (F129L) Disease level P6 at 4 ppm,[4],5%
same,% PHAKPA (F129L) Disease level P6 at 16 ppm,[4],0%
same,activity at 0.016 ppm,Pyricularia oryzae,13%
same,activity at 0.25 ppm,Septoria tritici,57%
same,Fungal growth (%) LEPTNO,Leptosphaeria nodorum,70%
same,activity at 0.063 ppm,Leptosphaeria nodorum,70%
same,activity at 0.016 ppm,Alternaria solani (wt),56%
same,activity at 0.016 ppm,"[2]; read-out: Fungal growth (%) ALTESO F129L, 0.016 ppm",55%
same,Fungal growth (%) CERCSO,Cercospora sojina; 4 ppm,27%
same,activity at 4 ppm,Cercospora sojina,27%
same,Fungal growth (%) MONGNI,Microdochium nivale,54%
same,activity at 0.016 ppm,Microdochium nivale,54%
CNC(=O)/C(=N/OC)c1cccc(C)c1CO/N=C(/c1cccc(C)c1)C1CC1 [drawing 958],activity at 0.016 ppm,Pyricularia oryzae,81%
same,activity at 0.25 ppm,Septoria tritici,87%
same,activity at 0.063 ppm,[1],93%
same,activity at 0.016 ppm,Alternaria solani (wt),89%
same,activity at 0.016 ppm,[2]; [5],93%
CO/N=C(/C(=O)OC)c1cccc(C)c1CO/N=C(\OC)c1cccc(C)c1 [drawing 954],activity at 0.063 ppm,Leptosphaeria nodorum,65%
same,activity at 0.016 ppm,Alternaria solani (wt),93%
same,activity at 0.016 ppm,[2]; [5],81%
same,activity at 0.25 ppm,Pyrenophora teres (wt),53%
same,activity at 4 ppm,Cercospora sojina; 4 ppm,67%
CO/N=C(/C(=O)OC)c1cccc(C)c1CO/N=C(\C)c1cccc(OC(F)(F)F)c1 [Ex. 28],PHAKPA (F129L) Disease level (%) P2 at 16 ppm,[3]; [6],30%
same,% PHAKPA (F129L) Disease level P2 at 16 ppm,[3],0%
same,PHAKPA (F129L) Disease level (%) P6 at 16 ppm,[4]; [7],18%
same,% PHAKPA (F129L) Disease level P6 at 16 ppm,[4],0%
CNC(=O)/C(=N/OC)c1cccc(C)c1CO/N=C(\C)c1cc(Br)cc(Br)c1 [compound 142],% PHAKPA (F129L) Disease level P2 at 4 ppm,[3],19%
same,% PHAKPA (F129L) Disease level P2 at 16 ppm,[3],5%
same,% PHAKPA (F129L) Disease level P6 at 4 ppm,[4],26%
same,% PHAKPA (F129L) Disease level P6 at 16 ppm,[4],5%
CNC(=O)/C(=N/OC)c1cccc(C)c1CO/N=C(\C)c1ccc(Br)cc1 [compound 168],% PHAKPA (F129L) Disease level P2 at 4 ppm,[3],2%
same,% PHAKPA (F129L) Disease level P2 at 16 ppm,[3],0%
same,% PHAKPA (F129L) Disease level P6 at 4 ppm,[4],5%
same,% PHAKPA (F129L) Disease level P6 at 16 ppm,[4],0%
CO/N=C(/C(=O)OC)c1ccccc1CO/N=C(\C)c1ccc(C)cc1 [reference compound],PHAKPA (F129L) Disease level (%) P2 at 16 ppm,[3]; [6],25%
same,PHAKPA (F129L) Disease level (%) P6 at 16 ppm,[4]; [7],10%
CO/N=C(/C(=O)OC)c1cccc(C)c1CO/N=C(\C)c1cccc(-c2ccccc2)c1 [compound 97],% PHAKPA (F129L) Disease level P2 at 4 ppm,[3],4%
same,% PHAKPA (F129L) Disease level P2 at 16 ppm,[3],1%
same,% PHAKPA (F129L) Disease level P6 at 4 ppm,[4],1%
same,% PHAKPA (F129L) Disease level P6 at 16 ppm,[4],0%
CO/N=C(/C(=O)OC)c1ccccc1CO/N=C(\C)c1ccc(C(F)(F)F)cc1 [reference compound],PHAKPA (F129L) Disease level (%) P2 at 16 ppm,[3]; [6],43%
same,PHAKPA (F129L) Disease level (%) P6 at 16 ppm,[4]; [7],13%
C=Cc1ccccc1/C(C)=N/OCc1c(C)cccc1/C(=N\OC)C(=O)NC [compound 211],% PHAKPA (F129L) Disease level P2 at 4 ppm,[3],100%
same,% PHAKPA (F129L) Disease level P2 at 16 ppm,[3],43%
same,% PHAKPA (F129L) Disease level P6 at 4 ppm,[4],100%
same,% PHAKPA (F129L) Disease level P6 at 16 ppm,[4],77%
